Data as given in patent publication US6780619B2, “D-aminoacylase and gene encoding the same” (priority 2000, dated 2004).

B1: D-aminoacylase: D-aminoacylase purified from Hypomyces mycophilus IFO 6785, comprising the amino acid sequence of SEQ ID NO: 2 (protein)
chain: MRTEILFHSATVITGDEAAQPFVADVLVSKGLIAKIGNPGSINATPDTRHLDVTGYILSPGFIDMHAHSDLYLLSHPDHEAKITQGCTTEVVGQDGISYAPIRNVDQLRAIREQIAGWNGNPTDEECRTTLKGVGMFEWQTIGEYLDCLERNRTATNVAMLVPQGNLRLLACGPYDTPASAEEIQDQIQLLREAMAQGAVGMSSGLTYTPGMYASTSELASLCAALAQEFPGAFYAPHHRSYGFQAIESYAEMLDLGESTGCPIHLTHATLNFSENKGKAPVLISMVDKSLAAGVDVTLDTYPYLPGCTTLAALLPSWASAGGPQETLKRLEDAESREKIRIAVEIKGCDGGHGIPTNWDEIQIGTTNEPSIASYSGRRLSEVAQSVGKPTIEVFFEILQKDKLATSCIMHVGNEENVRQIMQHRVHMAGSDGILHGQTLHPRAYGTFTRYLGHYSRELSLVALPSMIAHLTSRPAKRLSVYPYRGLIAEGSAADIVVFNPETVKDMSTYEEPKVPSRGIRFVLVNGQIAVDEGKMTGTRGGKTLRRSTDGKVKARDE

Key:
D-aminoacylase [1] = assay: Substrate specificity of the D-aminoacylase (amino acid produced, assayed by TNBS or HPLC method); type: biochemical, Hypomyces mycophilus; conditions: for catalytic activity of the D-aminoacylase for the substrate: 20 mM substrate, 50 mM Tris-HCl pH 7.5, 30° C., 20 minutes; for substrate specificity: the enzyme acts on / not on the substrate: purified enzyme, property (c)
Experimental: The substrate specificity of the D-aminoacylase of the present invention can be tested by the following procedure. For example, an enzyme solution (1 μl) is mixed and incubated with 50 mM Tris-HCl (pH 7.5) buffer (total volume: 1.0 ml) containing 20 mM substrate (various N-acetyl-D-amino acids) at 30° C. for 20 minutes. By measuring the amounts of amino acid synthesized by this reaction, enzymatic activities for respective substrates can be compared with each other. Assay for amino acid is performed by TNBS (trinitrobenzenesulfonic acid) method or HPLC method. For example, D-tryptophan, which may be used as a standard product in the reaction, is assayed for a comparison of enzymatic activity; by taking the amount of enzyme required for the production of 1 μmol D-tryptophan as 1 unit (or U), the reactivity is compared between different enzymes or is compared with the reactivity assayed for other types of amino acids.

[2] = in vivo; cited from earlier work
D-aminoacylase [3] = assay: Stabilizer/activator effect on D-aminoacylase activity; type: biochemical, Hypomyces mycophilus
Source text: (f) stabilizer: the enzyme activity is stabilized by reducing agents and activated by ICH2CONH2.

[4] = Optimal reaction temperature of the purified D-aminoacylase; type: biochemical, Hypomyces mycophilus; conditions: reaction at pH 7.5
Experimental: (e) optimal temperature: for the reaction at pH 7.5, the enzyme activity is optimal at about 45° C.; and […]

Row | Molecule | catalytic activity of the D-aminoacylase for the substrate (D-aminoacylase [1]) | substrate specificity: the enzyme acts on / not on the substrate (D-aminoacylase [1]) | also measured
1 | CSCC[C@@H](NC(C)=O)C(=O)O [N-acetyl-D-methionine] | efficiently catalyzes the reaction | acts on | 
2 | CC(=O)N[C@H](C(=O)O)C(C)C [N-acetyl-L-valine] | substantially no catalytic activity | not on | 
3 | O=C(CCl)N[C@H](Cc1ccccc1)C(=O)O [N-chloroacetyl-D-phenylalanine] | very efficiently catalyzes the reaction |  | 
4 | CC(=O)N[C@@H](Cc1c[nH]c2ccccc12)C(=O)O [N-acetyl-L-tryptophan] | substantially no catalytic activity | not on | 
5 | O=C1CCC(N2C(=O)c3ccccc3C2=O)C(=O)N1 [L(S)-form, thalidomide] |  |  | teratogenic activity [2]: strong teratogenicity
6 | CC(=O)N[C@H](CC(C)C)C(=O)O [N-acetyl-D-leucine] | efficiently catalyzes the reaction | acts on | 
7 | CC(=O)N[C@H](Cc1ccccc1)C(=O)O [N-acetyl-D-phenylalanine] | very efficiently catalyzes the reaction | acts on | 
8 | CSCC[C@H](NC(C)=O)C(=O)O [N-acetyl-L-methionine] | substantially no catalytic activity | not on | 
9 | CC(=O)N[C@H](Cc1c[nH]c2ccccc12)C(=O)O [N-acetyl-D-tryptophan] | efficiently catalyzes the reaction | acts on | 
10 | NC(=O)CI [ICH2CONH2] |  |  | effect on D-aminoacylase enzyme activity (D-aminoacylase [3]): activated
11 | O=C1CCC(N2C(=O)c3ccccc3C2=O)C(=O)N1 [D(R)-form thalidomide, thalidomide] |  |  | teratogenic activity [2]: no teratogenic activity
12 | CC(=O)N[C@@H](Cc1ccccc1)C(=O)O [N-acetyl-L-phenylalanine] | substantially no catalytic activity | not on | 
13 | CC(=O)N[C@@H](CC(C)C)C(=O)O [N-acetyl-L-leucine] | substantially no catalytic activity | not on | 
14 | CC(=O)N[C@@H](C(=O)O)C(C)C [N-acetyl-D-valine] | catalyzes the reaction | acts on | 
15 | B1 |  |  | optimal temperature of enzyme activity [4]: about 45 °C
